Test results published in US20250092383A1, “COMPOUNDS AND METHODS FOR FBXO22-MEDIATED PROTEIN DEGRADATION” (Northwestern University, priority 2023, published 2025).

Target: T1, CUTA (Homo sapiens, UniProt O60888)
T1 construct: endogenous in cells; host or cells: A549 parental and FBXO22 knockout
T1 sequence (O60888 33-179): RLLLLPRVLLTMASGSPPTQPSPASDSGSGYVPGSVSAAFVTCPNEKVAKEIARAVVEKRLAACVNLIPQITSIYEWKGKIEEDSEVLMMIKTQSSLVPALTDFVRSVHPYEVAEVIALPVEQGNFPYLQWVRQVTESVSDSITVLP
Test: MS-based global proteomic analysis in A549 parental and FBXO22 knockout cells (CUTA)
Format: cell-based
Details: 2 μM, 24 hours
From the text: As an F-box protein, FBXO22 is a pivotal player in the context of tumor progression. FBXO22 has many oncogenic functions, including propelling the ubiquitination and subsequent degradation of a diverse spectrum of substrates, such as histone lysine demethylase 4 subfamily KDM4A/B, methylated p53, p21, PTEN, KLF4, and LKB1. […] To establish the role of endogenous FBXO22 in facilitating 22-SLF-induced FKBP12 degradation, FBXO22 knockout was used in a panel of cancer cell lines, including A549 (lung cancer), MDA-MB-231 (breast cancer), and PC3 (prostate cancer). The efficacy of FBXO22 knockout was verified through both genomic PCR and global proteomic analysis (FIG. 8b,c). […] Furthermore, mass spectrometry (MS)-based global proteomic analysis was conducted on A549 parental and FBXO22 knockout cells, following the treatment with 2 μM 22-SLF for 24 hours. […] To further substantiate the engagement of FBXO22 by the electrophilic portion of 22-SLF, a biotin-conjugated probe known as 22-biotin (FIG. 2f) was synthesized. This probe was then immobilized onto streptavidin-coated beads, which were subsequently subjected to interaction with lysates from HEK293T cells expressing HA-tagged FBXO22.

CCC(C)(C)C(=O)C(=O)N1CCCC[C@H]1C(=O)O[C@H](CCc1ccc(OC)c(OC)c1)c1cccc(OCC(=O)NCCCOCCOCCOCCCN(C(=O)CCl)C(C(=O)NCc2ccccc2)c2nc3ccccc3s2)c1 (stereo partly shown) [22-SLF]
CUTA protein reduction in global proteomics: observed to undergo reduction upon 22-SLF treatment in A549 parental cells, but not in the FBXO22 knockout setting
